From patent US7994158B2, “Method for inhibiting tumor growth with dehydrosulphurenic acid extracted from Antrodia cinnamomea” (priority 2008, dated 2011)
Converted amounts (≈) assume the structure as drawn.

Columns and labels:
[1] = test system: human leukemic cell line U937; assay: Mitochondrial transmembrane potential (DiOC6(3), flow cytometry); format: cell-based; settings: 16 hours
Description: Mitochondrial pathway is one of the pathways of apoptosis induction. In cells undergoing apoptosis, mitochondria were stimulated to regulate the Bcl-2 family of proteins, which made the inner and outer mitochondrial membrane unstable. Apoptigenic factors were further released to induce apoptosis. The apoptotic mechanism of dehydrosulphurenic acid in tumor cells was studied in this experiment by measuring the mitochondrial transmembrane potential.
Dehydrosulphurenic acid in the concentration of 5 μg/ml were used to treat human leukemic cell line U937 for 16 hours; while U937 cells treated with 4 μM anti-cancer drug Camptothecin for 16 hours were served as positive control, and cells without treatment were served as negative control. These cells were washed with PBS and incubated with 40 nM 3,3′-dihexyloxacarbocyanine (DiOC6(3), Molecular Probes, Eugene, Oreg.) in the dark at 37° C. for 15 min, and were detected by flowcytometry. Excitation and emission wavelength settings of 488 nm and 530 nm were used to detect the density of green fluorescence to further estimate mitochondrial membrane potential.

[2] = test system: human monoblastoid leukemic cell line U937; assay: In vitro survival assay (MTT) for anti-leukemia effects; format: cell-based
Procedure: The NCI anti-cancer drug screen model was adopted to test the anti-cancer effect of dehydrosulphurenic acid. Dehydrosulphurenic acid was added into the culture media of human monoblastoid leukemic cell line U937 to test for tumor cell survival. This survival assay was carried out with the widely known MTT assay. American Type Culture Collection (ATCC) purchased U937 cell line is from lymphoma cells, which belongs to one of human leukemic cell lines and was classified into monoblasts during hematopoietic differentiation.
MTT assay is commonly used to determine cell proliferation, percent of viable cells, and cytotoxicity. MTT (3-[4,5-dimethylthiazol-2-yl]2,5-diphenyltetrazolium bromide) is a yellow dye, which can be absorbed by the living cells and be reduced to purplish blue formazan crystals by succinate tetrazolium reductase in mitochondria. Formazan formation can therefore be used to assess and determine the survival rate of cells.
(§1) The human leukemic cell line U937 was cultivated in RPMI media containing fetal calf serum for 24 hours and maintained in exponential growth condition. The proliferated cells were treated with dehydrosulphurenic acid in the concentration of 0 (the control group), 1.25, 2.5, 5, and 10 μg/ml (the experimental group), respectively. The cells were incubated at 37° C. in a 5% CO2 incubator for 24-72 hours. MTT was added in a concentration of 500 μg/ml into each well in dark and incubated for 4 hours, followed by the addition of 500 μl of isopropanol to stop the reaction. The plates were read on an ELISA reader at wavelength of 570 nm to determine the survival rates. The results were reported as the average±(plus/minus) SEM (Standard Error in the Mean). For statistical analysis, the t-test were used to compare the difference between each experiment result. P<0.05 was considered statistically significant.

[3] = test system: human pancreatic cancer cell line BxPc-3; assay: Cell morphology analysis (Liu's staining); format: cell-based; settings: 10 μg/ml
Procedure: (§2) The human leukemic cell line U937 and the human pancreatic cancer cell line BxPc-3 were treated respectively with dehydrosulphurenic acid for 24-72 h and stained with Liu's staining solution. The morphological changes of cells with (the experimental group) or without dehydrosulphurenic acid treatment (the control group) were observed under inverted phase-contrast microscope and shown in FIG. 5 and FIG. 6.

[4] = test system: human leukemic cell line U937; assay: Cell morphology analysis (Liu's staining); format: cell-based; settings: treatment for 24-72 h
Procedure: as §2

[5] = test system: apoptosis- and mitotic catastrophe-related proteins in U937 cells; assay: Western blot analysis of apoptosis-related proteins; format: cell-based, human; settings: 5 μg/ml; 0.5-16 hours
Description: Death receptor pathway is a signal transduction pathway of apoptosis induction. Some of the death factors, such as TNF-α and so on, bind with death receptor (DR) such as TNF family in the membrane to send death signal to cells and induce a series of apoptotic events. A family of aspartic acid-specific proteases, known as caspases, includes caspase-3 and caspase-8 would be activated during apoptotic process. Activated caspase can cleave downstream protein such as Poly(ADP-ribose) polymerase (PARP) to proceed through apoptosis. This experiment investigated the implication of the death receptor pathway in dehydrosulphurenic acid-induced apoptosis through Western blot analysis.
Dehydrosulphurenic acid in the concentration of 5 μg/ml were used to treat human leukemic cell line U937 for 0.5, 1, 2, 4, and 16 hours; while U937 cells treated with 4 μM anti-cancer drug Camptothecin for 16 hours were served as positive control, and cells without treatment were served as negative control. All the proteins from the cells were extracted with bicinchoninic acid (BCA) assay kit (Pierce, Rockford, Ill.). Equal amounts ([…]) of the protein were aliquoted and separated by electrophoresis on a 10% SDS-PAGE gel at a constant current of 20 mA and 70-100 volts. The proteins on the gel were transferred onto PVDF membranes, blocked with 5% non-fat milk, and incubated respectively with human-specific antibodies including: anti-Bcl-2, anti-Bax, anti-caspase 3, anti-caspase 8, anti-Cyclin B1, anti-p-Chk2 and anti-Actin (all were purchased from Transduction Laboratories, Lexington, Ky., USA) for 3 hours at room temperature. Secondary antibody horseradish peroxidase (purchased from Transduction Laboratories, Lexington, Ky., USA) was then added and the signals were detected under an Enhanced chemiluminescence system (ECS, Amersham Pharmacia, Piscataway, N.J.).

[6] = test system: human pancreatic cancer cell line BxPc-3; assay: Nuclear DNA changes, DNA ladder by DNA electrophoresis; format: cell-based; settings: 5 μg/ml; 24, 48, and 72 hours; data not shown
Procedure: (§3) Besides the abovementioned morphological changes, biochemical changes of the dying cell during apoptosis include chromatin condensation, cell shrinkage and breaking into apoptotic bodies, internucleosomal DNA fragmentation into a multiple DNA ladder during the late stage of apoptosis (can be shown in DNA electrophoresis) and so on. To further define the effects of dehydrosulphurenic acid on U937 and BxPc-3 during apoptotic stages, DNA ladders were determined using DNA electrophoresis at the present experiment.
(§4) Dehydrosulphurenic acid in the concentration of 5 μg/ml were used to treat human leukemic cell line U937 and human pancreatic cancer cell line BxPc-3 for 24, 48, and 72 hours; while U937 cells treated with 4 μM anti-cancer drug Camptothecin for 24 hours were served as positive control. Then these cells were lyzed with 0.5 ml of lysis buffer (5 mM Tris-borate (TBE), pH8.0; 0.25 ml Nonidet P-40; 1 mM EDTA; 20 μg/ml RNase (Sigma, St. Louis, Mo.)) at 37° C. for 1 hour, followed by treating with 300 μg/ml proteinase K for 1 hour. Total DNAs were extracted and analyzed by 1.5% agarose gel electrophoresis in TBE buffer (5 mM TBE buffer containing 1 μM EDTA, pH 8.0).

[7] = test system: human leukemic cell line U937; assay: as above; format: cell-based; settings: 5 μg/ml; 24, 48, and 72 hours
Procedure: as §3, §4

[8] = test system: human pancreatic cancer cell line BxPc-3; assay: In vitro survival assay (MTT) for anti-pancreatic cancer effects; format: cell-based
Procedure: The NCI anti-cancer drug screen model was also adopted to test the anti-cancer effect. Dehydrosulphurenic acid was added into the culture media of human pancreatic cancer cell line BxPc-3 to test for tumor cell survival. This survival assay was carried out with the abovementioned MTT assay. American Type Culture Collection (ATCC) purchased BxPc-3 cell line is from pancreatic cancer cells, which was originated from the epithelium of human pancreatic adenocarcinomas.
as §1, with “pancreatic cancer” for “leukemic”, “BxPc-3” for “U937”, “DMEM” for “RPMI”, “containing 100 IU/ml penicillin (Invitrogen, Carlsbad, Calif.), 100 IU/ml Streptomycin (Invitrogen, Carlsbad, Calif.), 2 mM glutamin (Invitrogen, Carlsbad, Calif.), 100 IU/ml penicillin (Invitrogen, Carlsbad, Calif.) and 10%” for “containing”, “(Atlanta Biologicals, Norcross, Ga.).” for “for 24 hours and maintained in exponential growth condition.”, “5” for “1.25, 2.5, 5,”

[9] = test system: human pancreatic cancer cell line BxPc-3; assay: Cell cycle analysis by flow cytometer (propidium iodide); format: cell-based; settings: 5 and 10 μg/ml; 2 to 3 days
Procedure: (§5) Flow cytometer was used to analyze the cell proliferation effect of dehydrosulphurenic acid toward human leukemic cell line U937 and human pancreatic cancer cell line BxPc-3.
(§6) Dehydrosulphurenic acid in the concentration of 1.25, 2.5, 5, and 10 μg/ml were used to treat human leukemic cell line U937 and the concentration of 5 and 10 μg/ml were used to treat human pancreatic cancer cell line BxPc-3; cells without addition of dehydrosulphurenic acid were served as the control group. The treated cells were fixed at […] with 70% ethanol for 1 hour and stained for 30 min with propidium iodide solution (propidium iodide, 0.5 mg/ml; RNAse, 0.1 mg/ml) contained in a CycleTEST PLUS DNA reagent kit (Becton Dickinson, Lincoln Park, N.J.). DNA content measurement on the collected 10^4 cells was performed on the FACS Calibur flow cytometer (Becton Dickinson, Calif., USA), and the cell cycle changes were analyzed using a ModFit software (Becton Dickinson).

[10] = test system: human leukemic cell line U937; assay: as above; format: cell-based
Procedure: as §5, §6

[11] = concentration groups of 5 and 10 μg/ml, third day of experiment

CC[C@@]1(O)C(=O)OCc2c1cc1n(c2=O)Cc2cc3ccccc3nc2-1 [Camptothecin, reference compound]
decrease of mitochondrial transmembrane potential ([1]; 4 μM camptothecin (positive control)): 37.1%

C=C(CC[C@@H](C(=O)O)C1C[C@H](O)[C@@]2(C)C3=CCC4C(C)(C)[C@@H](O)CC[C@]4(C)C3=CC[C@]12C)C(C)C (stereo partly drawn) [dehydrosulphurenic acid, 24-methylenelanosta-7,9(11)-diene-3β,15α-diol-21-oic acid]
inhibitory rate ([2]; 1.25, 2.5, 5, and 10 μg/ml (all groups), third day of experiment): more than 60%
growth inhibition of U937 cells ([2]; 1.25, 2.5, 5, and 10 μg/ml, first day of experiment): inhibit the growth of U937 cells effectively
IC50 ([2]; Homo sapiens, U-937, MTT, data not shown, read-out: IC50 toward U937 cells): ~2 µg/mL (≈ 4.13 µM)
inhibitory rate [2, 11]: more than 95%
highest inhibitory rate ([2]; third day of experiment): 98.9%
morphological change ([3]; after 2 days of treatment): typical cell apoptosis was observed
morphological change ([3]; treatment for one day): balloon-shaped cells were presented
morphological change [4]: induced to undergo apoptosis and mitotic catastrophe
Bax expression [5]: not changed
Bcl-2 expression [5]: slightly increased
cleavage of PARP [5]: no cleavage
cyclin B1 expression [5]: up-regulated
expression of caspase-3 [5]: not altered
expression of caspase-8 [5]: not altered
phosphorylation of Chk2 [5]: augmented
DNA ladder [6]: no DNA ladder
DNA ladder [7]: obvious DNA ladders
growth inhibition of BxPc-3 cells ([8]; 5 and 10 μg/ml, 24-72 hours): significantly inhibit the growth of BxPc-3 cells
IC50 ([8]; Homo sapiens, BXPC-3, MTT, data not shown, read-out: IC50 toward BxPc-3 cells): ~5 µM
inhibitory rate [8, 11]: more than 60%
highest inhibitory rate ([8]; third day of experiment): 82.5%
decrease of mitochondrial transmembrane potential ([1]; 5 μg/ml): no significant decrease
cell cycle arrest [9]: remarkable G0/G1 phase arrest
percentage of polyploidy cells [9]: not changed
sub-G1 population [9]: increase of cell cycle arrest at sub-G1 population
cell cycle arrest ([10]; 1.25-10 μg/ml, first day of experiment): remarkable G2/M phase arrest
sub-G1 population ([10]; higher concentration or second/third day of experiment): accumulating at sub-G1 population
percentage of cells with polyploidy ([10]; with increasing concentration): accompanied by increasing concentration
